Publication PMC5531494, “Target specificity, in vivo pharmacokinetics, and efficacy of the putative STAT3 inhibitor LY5 in osteosarcoma, Ewing's sarcoma, and rhabdomyosarcoma” (PLoS ONE, 2017)

Assays:
STAT4 = target: T1, STAT4 (Homo sapiens, UniProt Q14765); test: Cytokine-induced STAT4 phosphorylation in SJSA cells, Western blot; assay type: cell-based; details: induced by IFN-γ, IFN-α, or IL-4
T1 construct: endogenous in cells; host or cells: SJSA
Description: Cell lysis, protein isolation and immunoblotting were performed as described previously. Twenty micrograms of protein were resolved using 4–12% Bis-Tris polyacrylamide gels. Gels were transferred to PVDF membranes and subjected to blocking and incubation with primary and secondary antibodies. The primary antibodies used in this study included: phospho-STAT3 (Tyr705, Cell Signaling, Boston, MA and Abcam, Cambridge, MA), total STAT3 (Cell Signaling and Abcam), phospho-STAT1 (Cell Signaling), total STAT1 (Cell Signaling), phospho-STAT2 (Cell Signaling), phospho-STAT4 (Cell Signaling), phospho-STAT6 (Cell Signaling), and GAPDH (Cell Signaling). Protein bands were detected using Western Lightning ® Plus Enhanced Chemiluminescence substrate (Perkin Elmer, Waltham, MA) and HyBlot CL ® Autoradiography film (Denville Scientific, Holliston, MA). The cytokines used in this study included: interferon gamma (IFN-γ, Cell Signaling), interferon alpha (IFN-α, Cell Signaling), interleukin-4 (IL-4, Cell Signaling), interleukin-6 (IL-6, Cell Signaling), and oncostatin M (OSM, Cell Signaling).
Fig 1 LY5 inhibits pSTAT3 in sarcoma cell lines. (A) The tumor cell lines RH30, EW8, and RD were treated with increasing concentrations of LY5 for 30 minutes. Cell lysates were collected for Western blotting of p-STAT3, total STAT3, and GAPDH. GAPDH was used as loading control. […]

[1] = test system: RH30, ES-3, ES-7, EW-8 cells; test: Combined STAT3 knockdown-LY5 cell viability assay (Alamar Blue); assay type: cell-based, human; details: NC siRNA or STAT3 siRNA 48 hrs, then 0.5 μM or 1 μM LY5 48 hrs
Description: Cell lines were transfected with 10 nM of AllStars negative control siRNA or human STAT3-targeting siRNA #7 (5’-[…]-3’) (Qiagen, Germantown, MD) using Lipofectamine RNAiMAX (Life Technologies, Carlsbad, CA) according to the manufacturer’s instructions. After 72 hrs of transfection, cells were harvested and lysed for immunoblotting. For the combined STAT3 knockdown–LY5 cell viability assay, negative control siRNA or STAT3 siRNA #7 was transfected into cell lines. After 48 hrs, cells were treated with 0.5 μM or 1 μM of LY5 for another 48 hrs. Cell viability was then analyzed using Alamar Blue as described above.
Fig 6 Effects of LY5 are not mediated via STAT3 inhibition. (A) Antitumor activity of LY5 against OS-1 PDX model of OS. […] After 72 hours of transfection, cells were harvested and analyzed for total (T) STAT3 and GAPDH protein expression by immunoblotting. […] Cell viability was then determined using Alamar Blue staining. […]
(A) ES cell line ES-3 was transfected with either negative control siRNA (NC siRNA) or STAT3-targeting siRNA #7. After 72 hrs of transfection, cells were harvested and analyzed for total (T) STAT3 and GAPDH protein expression by immunoblotting. […] Cell viability was evaluated using Alamar Blue staining. […]

STAT3 = STAT3 (Homo sapiens, UniProt P40763); test: Western blot of pSTAT3 in MG63.3 cells; assay type: cell-based; parameters: endogenous in cells; host or cells: MG63.3
Chain of STAT3 (P40763 whole entry): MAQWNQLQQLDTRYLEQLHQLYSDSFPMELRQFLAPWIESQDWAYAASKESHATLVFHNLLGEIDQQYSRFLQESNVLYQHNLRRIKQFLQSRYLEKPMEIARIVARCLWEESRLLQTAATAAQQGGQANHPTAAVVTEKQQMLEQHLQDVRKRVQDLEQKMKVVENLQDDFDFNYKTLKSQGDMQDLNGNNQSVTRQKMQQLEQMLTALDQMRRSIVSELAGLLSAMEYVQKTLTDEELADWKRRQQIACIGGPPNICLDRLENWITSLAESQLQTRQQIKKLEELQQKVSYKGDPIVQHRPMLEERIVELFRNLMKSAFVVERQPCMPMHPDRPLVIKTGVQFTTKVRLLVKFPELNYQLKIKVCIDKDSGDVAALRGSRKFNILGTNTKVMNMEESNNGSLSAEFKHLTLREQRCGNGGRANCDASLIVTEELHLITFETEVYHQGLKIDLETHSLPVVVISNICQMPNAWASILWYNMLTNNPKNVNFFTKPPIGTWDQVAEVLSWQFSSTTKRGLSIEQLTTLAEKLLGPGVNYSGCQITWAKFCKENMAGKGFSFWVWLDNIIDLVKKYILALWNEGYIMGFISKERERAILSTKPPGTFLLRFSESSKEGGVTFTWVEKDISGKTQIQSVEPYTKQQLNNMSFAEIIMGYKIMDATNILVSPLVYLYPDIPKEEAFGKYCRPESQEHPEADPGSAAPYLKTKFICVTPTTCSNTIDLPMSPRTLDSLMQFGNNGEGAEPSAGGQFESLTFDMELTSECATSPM
Description: Murine K7M2 and human MG63.3 OS cells were treated with increasing concentrations of LY5 for 2 hrs or 7 hrs. Western blotting was performed for pSTAT3 and STAT3 as indicated above to confirm inhibition of STAT3 phosphorylation in the cell lines prior to initiation of the PuMA assay. In addition, a sulforhodamine B colorimetric assay was performed to assess the cytotoxicity of LY5 in K7M2 and MG63.3 cells as previously described.
MG63.3 and K7M2 cell lines were exposed to increasing concentrations of LY5 to determine the IC50 (A). Western blot analysis was performed to determine the dose and duration of LY5 exposure required to inhibit STAT3 phosphorylation (B-C). Serial imaging of fluorescently labeled MG63.3 and K7M2 cells was performed in ex vivo LY5 treated lung sections (D). Metastatic burden was quantified by evaluation of the percent tumor burden (mean normalized fluorescent area). Data are reported as the mean ± standard deviation. In MG 63.3 experiment, p < 0.0001 Kruskal-Wallis test, p < 0.05 10 μM vs control at days 7, 14, and 21, 10 μM vs 1 μM at days 7, 14, and 21, 50 μM vs control at days 7, 14, and 21, and 50 μM vs 10 μM at days 7, 14, and 21 post-test Dunn. In K7M2 experiment, p < 0.0001 Kruskal-Wallis test, p < 0.05 10 μM vs control at days 14 and 21, 10 μM vs 0.1 μM at days 14 and 21, and 10 μM vs 1 μM at days 14 and 21, post-test Dunn.

T1 sequence (Q14765 whole entry): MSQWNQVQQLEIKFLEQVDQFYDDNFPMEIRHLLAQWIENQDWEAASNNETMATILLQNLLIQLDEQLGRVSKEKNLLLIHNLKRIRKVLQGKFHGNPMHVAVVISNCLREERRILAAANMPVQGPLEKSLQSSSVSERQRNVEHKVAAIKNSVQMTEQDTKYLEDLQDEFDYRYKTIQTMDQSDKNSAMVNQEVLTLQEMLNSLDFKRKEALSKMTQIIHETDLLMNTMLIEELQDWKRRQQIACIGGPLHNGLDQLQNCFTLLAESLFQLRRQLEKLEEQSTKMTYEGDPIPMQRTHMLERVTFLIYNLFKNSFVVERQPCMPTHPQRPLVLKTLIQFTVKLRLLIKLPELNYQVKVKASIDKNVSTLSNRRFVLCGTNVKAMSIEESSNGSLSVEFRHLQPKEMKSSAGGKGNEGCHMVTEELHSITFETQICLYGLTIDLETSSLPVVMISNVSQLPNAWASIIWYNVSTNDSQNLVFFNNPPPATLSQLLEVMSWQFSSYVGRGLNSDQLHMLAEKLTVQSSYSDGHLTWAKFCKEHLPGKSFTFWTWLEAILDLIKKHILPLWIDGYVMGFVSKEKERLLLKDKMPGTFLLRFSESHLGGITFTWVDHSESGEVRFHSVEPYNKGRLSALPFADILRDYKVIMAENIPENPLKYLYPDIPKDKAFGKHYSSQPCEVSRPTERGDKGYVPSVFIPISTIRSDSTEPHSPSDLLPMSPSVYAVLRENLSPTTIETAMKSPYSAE

`NS(=O)(=O)c1cccc2c1C(=O)C=C(Nc1cccnc1)C2=O` [LY5, 5,8-dioxo-6-(pyridin-3-ylamino)-5,8-dihydronaphthalene-1-sulfonamide] was tested, and the “phosphorylation of STAT4” value (STAT4) was “did not inhibit”, the “response to LY5 (cell viability) with or without STAT3 depletion” value [1] was “comparable” and the “exposure time for effective inhibition of STAT3 phosphorylation” value (STAT3; MG 63.3, 1 μM LY5) was 0.5 h. For the same molecule, the “concentration that decreased STAT3 phosphorylation” value (STAT3; MG63.3, 2 hrs treatment) was 1 µM.
